Active and inactive are the calls of the source. The calls are words filed in the database; no cut-off is given here.
Experiments:
[1] = Cytotoxicity against human cystinotic Fibroblast at 50 uM for 72 hrs by Alamar blue assay; assay type: cell-based
[2] = system: Fibroblast; assay: Decrease in intracellular cystine level in human cystinotic Fibroblast at 50 uM for 24 hrs by thiol assay; assay type: functional, cell-based

For NCCS [CYSTEAMINE], which Activity [1] is on record?
Its Activity is “Non-toxic”.

Which results are given for Cl.NCCSSCCNC(=O)CC[C@H](NC(=O)c1ccc(NCc2cnc3nc(N)nc(O)c3n2)cc1)C(=O)NCCSSCCN?
Activity [1]: Non-toxic; Activity [2]: Active
